Reference: patent US12509474B2, “Inhibitors of complement factors and uses thereof” (Annexon, Inc., priority 2020, dated 2025)
Where a name gives a salt, the structure may show the parent alone.

These compounds were tested against T1, human C1s protein (Homo sapiens, UniProt P09871) (assay: C1s enzymatic assay (hydrolysis of YLGR-Rh110-dPro)). Conditions: substrate YLGR-Rh110-dPro 20 μM, 15 min pre-incubation, 60 min RT, fluorescence, read-out: hC1s pIC50 (converted).
T1 construct: A104
T1 sequence (P09871 16-688): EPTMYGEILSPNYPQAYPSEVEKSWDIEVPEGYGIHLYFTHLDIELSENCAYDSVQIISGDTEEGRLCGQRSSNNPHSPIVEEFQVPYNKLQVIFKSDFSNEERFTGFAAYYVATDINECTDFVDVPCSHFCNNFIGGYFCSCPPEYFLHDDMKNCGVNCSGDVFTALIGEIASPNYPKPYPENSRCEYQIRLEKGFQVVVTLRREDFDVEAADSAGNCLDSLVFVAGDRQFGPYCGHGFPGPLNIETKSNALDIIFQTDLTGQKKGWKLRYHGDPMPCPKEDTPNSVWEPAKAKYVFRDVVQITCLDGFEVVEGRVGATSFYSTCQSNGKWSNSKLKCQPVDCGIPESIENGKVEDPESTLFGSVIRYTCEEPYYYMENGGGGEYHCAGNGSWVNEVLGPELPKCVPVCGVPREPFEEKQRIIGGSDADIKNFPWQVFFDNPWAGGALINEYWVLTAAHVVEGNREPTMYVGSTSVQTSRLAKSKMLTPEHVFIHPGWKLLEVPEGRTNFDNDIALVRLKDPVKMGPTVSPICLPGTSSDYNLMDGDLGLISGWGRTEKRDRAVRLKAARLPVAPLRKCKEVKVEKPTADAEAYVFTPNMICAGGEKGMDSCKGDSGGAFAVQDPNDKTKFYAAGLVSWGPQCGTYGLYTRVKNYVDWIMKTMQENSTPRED
Assay type: biochemical
Description: Compound Testing in the C1s Enzymatic Assay
The enzyme cleaves the substrate with the release of Rh110 which is highly fluorescent. C1s inhibitors prevent the hydrolysis of the substrate thus resulting in a decrease of the signal.
On the day of the experiment 0.1 mg/mL BSA (Sigma, B4287) is added fresh to the buffer. The test item stock solutions are serially diluted 1:3 or 1:4 or 1:5 with DMSO, 11-point curves, in a 384-well compound plate. Nafamostat concentration curve is always included in the assay plate as a reference control.
The high controls are prepared dispensing in 0.25 μL DMSO in column 23, rows AH or AP and low controls with 0.25 μL of 0.1 M Nafamostat. […] The YLGR-Rh110-dPro substrate is prepared as 2× of the final assay concentration of 20 μM. 1/well of 2× enzyme solution is dispensed and pre-incubated for 15 min with the compounds. The enzymatic reaction is then started with 5 μL/well of the 2× substrate solution.

Row | SMILES | IC50
1 | Cc1cc2cc(-c3cccc(B(O)O)c3)ccc2c(N)n1 [Example 13, [3-(1-amino-3-methylisoquinolin-6-yl)phenyl]boronic Acid; Trifluoroacetic Acid Salt] | 37.2 nM
2 | COCCOCCOCCOCCOCCOCCOc1ccc(B(O)O)cc1-c1ccc2c(N)nnc(C)c2c1 [Example 16, [3-(1-amino-4-methylphthalazin-6-yl)-4-[2-[2-[2-[2-[2-(2-methoxyethoxy)ethoxy]ethoxy]ethoxy]ethoxy]ethoxy]phenyl]boronic Acid] | 4.79 nM
3 | Nc1nncc2cc(-c3cc(B(O)O)ccc3NC(=O)c3ccccc3Cl)ccc12 [Example 18, [3-(1-aminophthalazin-6-yl)-4-[(2-chlorobenzoyl)amino]phenyl]boronic Acid Formic Acid Salt] | 5.5 nM
4 | COc1ccc(B(O)O)cc1-c1ccc2c(N)nc(C)cc2c1 [Example 22, [3-(1-amino-3-methylisoquinolin-6-yl)-4-methoxyphenyl]boronic Acid] | 269 nM
5 | Cc1nnc(N)c2ccc(-n3cc(B(O)O)cn3)cc12 [Example 23, [1-(1-amino-4-methylphthalazin-6-yl)pyrazol-4-yl]boronic Acid] | 363 nM
6 | COc1cc(F)c(B(O)O)cc1-c1ccc2c(N)nnc(C)c2c1 [Example 25, [5-(1-amino-4-methylphthalazin-6-yl)-2-fluoro-4-methoxyphenyl]boronic Acid] | 1.7 nM
7 | COc1ccc(B(O)O)cc1-c1cc(F)c2c(N)cnnc2c1 [Example 31, [3-(4-amino-5-fluorocinnoline-7-yl)-4-methoxyphenyl]boronic Acid] | 15.1 nM
8 | COc1cc(C(F)F)c(B(O)O)cc1-c1ccc2c(N)nnc(C)c2c1 [Example 35, [5-(1-amino-4-methylphthalazin-6-yl)-2-(difluoromethyl)-4-methoxyphenyl]boronic Acid] | 2.69 nM
9 | Cc1nnc(N)c2ccc(-c3cc(B(O)O)cc(F)c3C#N)cc12 [Example 36, [3-(1-amino-4-methylphthalazin-6-yl)-4-cyano-5-fluorophenyl]boronic Acid Formic Acid Salt] | 1.91 nM
10 | COc1cc(C(F)(F)F)c(B(O)O)cc1-c1ccc2c(N)nnc(C)c2c1 [Example 37, [5-(1-amino-4-methylphthalazin-6-yl)-4-methoxy-2-(trifluoromethyl)phenyl]boronic Acid Formic Acid Salt] | 1.58 nM
11 | COc1cc(OC(F)(F)F)c(B(O)O)cc1-c1ccc2c(N)nnc(C)c2c1 [Example 44, [5-(1-amino-4-methylphthalazin-6-yl)-4-methoxy-2-(trifluoromethoxy)phenyl]boronic Acid] | 0.813 nM
12 | Cc1nnc(N)c2ccc(-c3cc(P(C)(C)=O)cc(B(O)O)c3F)cc12 [Example 47, [3-(1-amino-4-methylphthalazin-6-yl)-5-dimethylphosphoryl-2-fluorophenyl]boronic Acid Formic Acid Salt] | 75.9 nM
13 | COc1ccc(B(O)O)c(F)c1-c1ccc2c(N)cnnc2c1 [Example 48, [3-(4-aminocinnolin-7-yl)-2-fluoro-4-methoxyphenyl]boronic Acid] | 4.07 nM
14 | COc1c(-c2ccc3c(N)nnc(C)c3c2)cc(B(O)O)cc1C(F)(F)F [Example 49, [3-(1-amino-4-methylphthalazin-6-yl)-4-methoxy-5-(trifluoromethyl)phenyl]boronic Acid] | 1.91 nM
15 | Nc1cnnc2cc(-c3cc(B(O)O)ccc3OC3CCOCC3)ccc12 [Example 51, [3-(4-aminocinnolin-7-yl)-4-(oxan-4-yloxy)phenyl]boronic Acid Formic Acid Salt] | 0.724 nM
16 | COc1ccc(B(O)O)cc1-c1cc(F)c2c(N)nnc(C)c2c1 [Example 55] | 6.61 nM

The remaining lines, values ahead:

Row | IC50 | SMILES
17 | 214 nM | Nc1nnc(C2CC2)c2cc(-c3cccc(B(O)O)c3)ccc12 [Example 11, [3-(1-amino-4-cyclopropylphthalazin-6-yl)phenyl]boronic Acid Formic Acid Salt]
18 | 8.13 nM | CCc1ccc(B(O)O)cc1-c1ccc2c(N)nnc(C)c2c1 [Example 12, [3-(1-amino-4-methylphthalazin-6-yl)-4-ethylphenyl]boronic Acid Formic Acid Salt]
19 | 14.1 nM | Cc1nnc(N)c2ccc(-c3ccc4c(c3)B(O)OC4)cc12 [Example 14, 6-(1-hydroxy-3H-2,1-benzoxaborol-6-yl)-4-methylphthalazin-1-amine Formic Acid Salt]
20 | 1.7 nM | Cc1nnc(N)c2ccc(-c3cc(B(O)O)ccc3OC(F)(F)F)cc12 [Example 15, [3-(1-amino-4-methylphthalazin-6-yl)-4-(trifluoromethoxy)phenyl]boronic Acid]
21 | 1.74 nM | Cc1nnc(N)c2ccc(-c3cncc(B(O)O)c3)cc12 [Example 17, [5-(1-amino-4-methylphthalazin-6-yl)pyridin-3-yl]boronic Acid]
22 | 1.35 nM | Cc1nnc(N)c2ccc(-c3cc(B(O)O)ccc3F)cc12 [Example 19, [3-(1-amino-4-methylphthalazin-6-yl)-4-fluorophenyl]boronic acid formic acid salt]
23 | 10 nM | COc1cc2c(cc1-c1ccc3c(N)nnc(C)c3c1)B(O)OC2 [Example 20, 6-(1-hydroxy-5-methoxy-3H-2,1-benzoxaborol-6-yl)-4-methylphthalazin-1-amine]
24 | 2.19 nM | Cc1nnc(N)c2ccc(-c3ccc4c(c3)B(O)OCC4)cc12 [Example 26, Formic Acid Salt]
25 | 1.78 nM | COc1cc(C)c(B(O)O)cc1-c1ccc2c(N)nnc(C)c2c1 [Example 28, [5-(1-amino-4-methylphthalazin-6-yl)-4-methoxy-2-methylphenyl]boronic Acid Formic Acid Salt]
26 | 1.91 nM | Cc1nnc(N)c2ccc(-c3cc(B(O)O)ccc3C#N)cc12 [Example 29, [3-(1-amino-4-methylphthalazin-6-yl)-4-cyanophenyl]boronic Acid]
27 | 2.04 nM | COc1ncc(B(O)O)cc1-c1ccc2c(N)nnc(C)c2c1 [Example 30, [5-(1-amino-4-methylphthalazin-6-yl)-6-methoxypyridin-3-yl]boronic Acid]
28 | 4.68 nM | COc1cc2c(cc1-c1ccc3c(N)nnc(C)c3c1)B(O)OCC2 [Example 32, 6-(1-hydroxy-6-methoxy-3,4-dihydro-2,1-benzoxazonin-7-yl)-4-methylphthalazin-1-amine Formic Acid Salt]
29 | 1.02 nM | COc1ccc(B(O)O)c(F)c1-c1ccc2c(N)nnc(C)c2c1 [Example 34, [3-(1-amino-4-methylphthalazin-6-yl)-2-fluoro-4-methoxyphenyl]boronic Acid Formic Acid Salt]
30 | 1.05 nM | Cc1nnc(N)c2ccc(-c3cc(B(O)O)cc(C(F)(F)F)c3)cc12 [Example 38]
31 | 1.32 nM | Cc1nnc(N)c2ccc(-c3cc(B(O)O)ccc3C(F)(F)F)cc12 [Example 39, [3-(1-amino-4-methylphthalazin-6-yl)-4-(trifluoromethyl)phenyl]boronic Acid Formic Acid Salt]
32 | 1.02 nM | Cc1nnc(N)c2ccc(-c3cc(B(O)O)cc(P(C)(C)=O)c3)cc12 [Example 40, [3-(1-amino-4-methylphthalazin-6-yl)-5-dimethylphosphorylphenyl]boronic Acid Formic Acid Salt]
33 | 1.2 nM | Cc1cc(C#N)c(-c2ccc3c(N)nnc(C)c3c2)cc1B(O)O [Example 41, [5-(1-amino-4-methylphthalazin-6-yl)-4-cyano-2-methylphenyl]boronic Acid]
34 | 1.38 nM | COc1c(C)cc(B(O)O)cc1-c1ccc2c(N)nnc(C)c2c1 [Example 42, [3-(1-amino-4-methylphthalazin-6-yl)-4-methoxy-5-methylphenyl]boronic Acid Formic Acid Salt]
35 | 1 nM | COc1cc(C2CC2)c(B(O)O)cc1-c1ccc2c(N)nnc(C)c2c1 [Example 43, [5-(1-amino-4-methylphthalazin-6-yl)-2-cyclopropyl-4-methoxyphenyl]boronic Acid]
36 | 0.562 nM | COc1c(C)cc(-c2ccc3c(N)nnc(C)c3c2)cc1B(O)O [Example 45, [5-(1-amino-4-methylphthalazin-6-yl)-2-methoxy-3-methylphenyl]boronic Acid]
37 | 7.41 nM | COc1cc2c(cc1-c1ccc3c(N)cnnc3c1)B(O)OCC2 [Example 46, 7-(1-hydroxy-6-methoxy-3,4-dihydro-2,1-benzoxazonin-7-yl)cinnolin-4-amine Trifluoroacetic Acid Salt]
38 | 0.891 nM | COc1cc(Cl)c(B(O)O)cc1-c1ccc2c(N)nnc(C)c2c1 [Example 50, [5-(1-amino-4-methylphthalazin-6-yl)-2-chloro-4-methoxyphenyl]boronic Acid]
